# Experimental data from patent US9745289B2, “Aldosterone synthase inhibitors” (Boehringer Ingelheim International GmbH, priority 2014, dated 2017).
# Target: cortisol synthase (CYP11B1) (Macaca fascicularis, UniProt A0A2K5ULY1)
# Test: Inhibition of Cortisol Synthesis
# Format: biochemical, cynomolgus monkey
# Details: cynomolgus adrenal gland mitochondria; 150 units of CYP11B1, 11-deoxycortisol as substrate, cortisol measured as product
# Protocol: The aldosterone synthase and cortisol synthase inhibition assays employ cynomolgus adrenal gland mitochondria as the source of aldosterone synthase (CYP11B2) and cortisol synthase (CYP11B1). […] Activity of CYP11B2 and CYP11B1 in these preparations is defined as the amount of enzyme that generates 1 pmol of product in one hour under the conditions described.
# Assays are performed in 96-well format in a final volume of 60 μL/well, containing 100 mM potassium phosphate, pH 7.4, 1% (v/v) DMSO, and additionally, 2 μM of corticosterone and 50 units of CYP11B2 activity. Reactions are started by the addition of NADPH to 1 mM and allowed to proceed for 90 minutes at 37° C. Reactions are terminated by the addition of 60 μL of MeCN containing an internal standard for mass spectrometry. One hundred microliters are then transferred to a glass filter plate and centrifuged at 570×g for 5 minutes and the filtrate is collected. Reaction product aldosterone is quantified by mass spectrometry. To determine the assay blank value (0% activity), NADPH is omitted from some reactions.
# Dose dependent inhibition is quantified by the inclusion of compound at various concentrations. Maximum activity (100%) is defined by reactions containing NADPH, but without compound.
# Assays are performed as for aldosterone synthase except for the use of 150 units of CYP11B1, 11-deoxycortisol as substrate and cortisol measured as product.
row,IC50,SMILES
1,8.2 µM,"NC(=O)c1cccc2c1OCC(c1cncc(CO)c1)O2 (single isomer, unassigned) [Cpd 20A, 2-(5-Hydroxymethyl-pyridin-3-yl)-2,3-dihydro-benzo[1,4]dioxine-5-carboxylic acid amide]"
2,6.8 µM,"NC(=O)c1cccc2c1OCC(c1cncc(CO)c1)O2 (single isomer, unassigned) [Cpd 20B, 2-(5-Hydroxymethyl-pyridin-3-yl)-2,3-dihydro-benzo[1,4]dioxine-5-carboxylic acid amide]"
3,2.6 µM,"Cc1c(F)cncc1C1COc2c(cccc2C(N)=O)O1 (single isomer, unassigned) [Cpd 21A, 2-(5-Fluoro-4-methyl-pyridin-3-yl)-2,3-dihydro-benzo[1,4]dioxine-5-carboxylic acid amide]"
4,5.3 µM,"Cc1c(F)cncc1C1COc2c(cccc2C(N)=O)O1 (single isomer, unassigned) [Cpd 21B, 2-(5-Fluoro-4-methyl-pyridin-3-yl)-2,3-dihydro-benzo[1,4]dioxine-5-carboxylic acid amide]"
5,2 µM,"NC(=O)c1cccc2c1OCC(c1cncc(C(F)F)c1)O2 (single isomer, unassigned) [Cpd 22A, 2-(5-Difluoromethyl-pyridin-3-yl)-2,3-dihydro-benzo[1,4]dioxlne-5-carboxylic acid amide]"
6,2.3 µM,"NC(=O)c1cccc2c1OCC(c1cncc(C(F)F)c1)O2 (single isomer, unassigned) [Cpd 22B, 2-(5-Difluoromethyl-pyridin-3-yl)-2,3-dihydro-benzo[1,4]dioxlne-5-carboxylic acid amide]"
7,1.4 µM,"Cc1ccncc1C1COc2c(cccc2C(N)=O)O1 (single isomer, unassigned) [Cpd 23A, 2-(4-Methyl-pyridin-3-yl)-2,3-dihydro-benzo[1,4]dioxine-5-carboxylic acid amide]"
8,2 µM,"Cc1ccncc1C1COc2c(cccc2C(N)=O)O1 (single isomer, unassigned) [Cpd 23B, 2-(4-Methyl-pyridin-3-yl)-2,3-dihydro-benzo[1,4]dioxine-5-carboxylic acid amide]"
9,25 µM,"CN(Cc1cncc(C2COc3c(cccc3C(N)=O)O2)c1)C(=O)C1CC1 (single isomer, unassigned) [Cpd 24B, 2-{5-[(Cyclopropanecarbonyl-methyl-amino)-methyl]-pyridin-3-yl}-2,3-dihydro-benzo[1,4]dioxine-5-carboxylic acid amide]"
10,> 100 µM,"CN(C)C(=O)COCc1cncc(C2COc3c(cccc3C(N)=O)O2)c1 (single isomer, unassigned) [Cpd 25A, 2-(5-Dimethylcarbamoylmethoxymethyl-pyridin-3-yl)-2,3-dihydro-benzo[1,4]dioxine-5-carboxylic acid amide]"
11,15 µM,"CN(C)C(=O)COCc1cncc(C2COc3c(cccc3C(N)=O)O2)c1 (single isomer, unassigned) [Cpd 25B, 2-(5-Dimethylcarbamoylmethoxymethyl-pyridin-3-yl)-2,3-dihydro-benzo[1,4]dioxine-5-carboxylic acid amide]"
12,1.8 µM,"NC(=O)c1cccc2c1OCC(c1cncc(C3(O)CCC3)c1)O2 (single isomer, unassigned) [Cpd 26A, 2-[5-(1-Hydroxy-cyclobutyl)-pyridin-3-yl]-2,3-dihydro-benzo[1,4]dioxine-5-carboxylic acid amide]"
13,0.67 µM,"NC(=O)c1cccc2c1OCC(c1cncc(C3(O)CCC3)c1)O2 (single isomer, unassigned) [Cpd 26B, 2-[5-(1-Hydroxy-cyclobutyl)-pyridin-3-yl]-2,3-dihydro-benzo[1,4]dioxine-5-carboxylic acid amide]"
14,2.8 µM,"Cc1c(C(C)O)cncc1C1COc2c(cccc2C(N)=O)O1 (single isomer, unassigned) [Cpd 27A, 2-[5-(1-Hydroxy-ethyl)-4-methyl-pyridin-3-yl]-2,3-dihydro-benzo[1,4]dioxine-5-carboxylic acid amide]"
15,5 µM,"Cc1c(C(C)O)cncc1C1COc2c(cccc2C(N)=O)O1 (single isomer, unassigned) [Cpd 27B, 2-[5-(1-Hydroxy-ethyl)-4-methyl-pyridin-3-yl]-2,3-dihydro-benzo[1,4]dioxine-5-carboxylic acid amide]"
16,22 µM,"CN(C)C(=O)Cc1cncc(C2COc3c(cccc3C(N)=O)O2)c1 (single isomer, unassigned) [Cpd 29A, 2-[5-[2-(Dimethylamino)-2-oxo-ethyl]-3-pyridyl]-2,3-dihydro-1,4-benzodioxine-5-carboxamide]"

# More lines, now with the values behind:
row,SMILES,IC50
1,"NC(=O)c1cccc2c1OCC(c1cncc(CC(=O)N3CCOCC3)c1)O2 (single isomer, unassigned) [Cpd 13A, 2-[5-(2-Morpholin-4-yl-2-oxo-ethyl)-pyridin-3-yl]-2,3-dihydro-benzo[1,4]dioxine-5-carboxylic acid amide]",> 100 µM
2,"NC(=O)c1cccc2c1OCC(c1cncc(CC(=O)N3CCOCC3)c1)O2 (single isomer, unassigned) [Cpd 13B, 2-[5-(2-Morpholin-4-yl-2-oxo-ethyl)-pyridin-3-yl]-2,3-dihydro-benzo[1,4]dioxine-5-carboxylic acid amide]",66 µM
3,"NC(=O)c1cccc2c1OCC(c1cncc(CNC(=O)C3CC3)c1)O2 (single isomer, unassigned) [Cpd 14A, 2-{5-[(Cyclopropanecarbonyl-amino)-methyl]-pyridin-3-yl}-2,3-dihydro-benzo[1,4]dioxine-5-carboxylic acid amide.]",12 µM
4,"NC(=O)c1cccc2c1OCC(c1cncc(CNC(=O)C3CC3)c1)O2 (single isomer, unassigned) [Cpd 14B, 2-{5-[(Cyclopropanecarbonyl-amino)-methyl]-pyridin-3-yl}-2,3-dihydro-benzo[1,4]dioxine-5-carboxylic acid amide.]",> 30 µM
5,"NC(=O)c1cccc2c1OCC(c1cncc(CN3CCOCC3=O)c1)O2 (single isomer, unassigned) [Cpd 15A, 2-[5-(3-Oxo-morpholin-4-ylmethyl)-pyridin-3-yl]-2,3-dihydro-benzo[1,4]dioxine-5-carboxylic acid amide]",15 µM
6,"NC(=O)c1cccc2c1OCC(c1cncc(CN3CCOCC3=O)c1)O2 (single isomer, unassigned) [Cpd 15B, 2-[5-(3-Oxo-morpholin-4-ylmethyl)-pyridin-3-yl]-2,3-dihydro-benzo[1,4]dioxine-5-carboxylic acid amide]",> 30 µM
7,"NC(=O)c1cccc2c1OCC(c1cncc(-c3ccc(S(N)(=O)=O)cc3)c1)O2 (single isomer, unassigned) [Cpd 16A, 2-[5-(4-Sulfamoyl-phenyl)-pyridin-3-yl]-2,3-dihydro-benzo[1,4]dioxine-5-carboxylic acid amide]",5.2 µM
8,"NC(=O)c1cccc2c1OCC(c1cncc(-c3ccc(S(N)(=O)=O)cc3)c1)O2 (single isomer, unassigned) [Cpd 16B, 2-[5-(4-Sulfamoyl-phenyl)-pyridin-3-yl]-2,3-dihydro-benzo[1,4]dioxine-5-carboxylic acid amide]",0.054 µM
9,"CC(=O)N1CC[C@H](Oc2cncc(C3COc4c(cccc4C(N)=O)O3)c2)C1 (single isomer, unassigned) [Cpd 17A]",> 30 µM
10,"CC(=O)N1CC[C@H](Oc2cncc(C3COc4c(cccc4C(N)=O)O3)c2)C1 (single isomer, unassigned) [Cpd 17B]",18 µM
11,"CC(=O)N1CC[C@@H](Oc2cncc(C3COc4c(cccc4C(N)=O)O3)c2)C1 (single isomer, unassigned) [Cpd 18A]",16 µM
12,"CC(=O)N1CC[C@@H](Oc2cncc(C3COc4c(cccc4C(N)=O)O3)c2)C1 (single isomer, unassigned) [Cpd 18B]",1.1 µM
13,"CC(=O)N1CC(Oc2cncc(C3COc4c(cccc4C(N)=O)O3)c2)C1 (single isomer, unassigned) [Cpd 19A, 2-[5-(1-Acetyl-azetidin-3-yloxy)-pyridin-3-yl]-2,3-dihydro-benzo[1,4]dioxine-5-carboxylic acid amide]",> 30 µM
14,"CC(=O)N1CC(Oc2cncc(C3COc4c(cccc4C(N)=O)O3)c2)C1 (single isomer, unassigned) [Cpd 19B, 2-[5-(1-Acetyl-azetidin-3-yloxy)-pyridin-3-yl]-2,3-dihydro-benzo[1,4]dioxine-5-carboxylic acid amide]",24 µM
15,"CN(Cc1cncc(C2COc3c(cccc3C(N)=O)O2)c1)C(=O)C1CC1 (single isomer, unassigned) [Cpd 24A, 2-{5-[(Cyclopropanecarbonyl-methyl-amino)-methyl]-pyridin-3-yl}-2,3-dihydro-benzo[1,4]dioxine-5-carboxylic acid amide]",7 µM
16,"CNC(=O)c1cccc2c1OCC(c1cncc(C(F)(F)F)c1)O2 (single isomer, unassigned) [Cpd 28A, 2-(5-Trifluoromethyl-pyridin-3-yl)-2,3-dihydro-benzo[1,4]dioxine-5-carboxylic acid methylamide]",> 30 µM
17,"CNC(=O)c1cccc2c1OCC(c1cncc(C(F)(F)F)c1)O2 (single isomer, unassigned) [Cpd 28B, 2-(5-Trifluoromethyl-pyridin-3-yl)-2,3-dihydro-benzo[1,4]dioxine-5-carboxylic acid methylamide]",6.1 µM
